Structures are written as SMILES. Where a SMILES comes first, the peptide text is derived from it.

The experiment concerns the target T1, EB1_191–260 (EB1c) (Homo sapiens, UniProt Q15691).
T1 construct: Human EB1 (Uniprot code Q15691), residues 191–260, was cloned into pOPINS vector; SUMO fusion protein (cleaved yes); 6xHis (cleaved yes); made in house; host or cells: E. coli BL21 Star (DE3)
T1 sequence (Q15691 191-260): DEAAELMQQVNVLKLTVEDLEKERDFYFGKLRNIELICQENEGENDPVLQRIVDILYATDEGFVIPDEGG
Nature of the experiment: 1H-15N HSQC NMR ligand screening / titration (chemical shift perturbations, KD by curve fitting). To be noted: NMR titration curves (Tyr247) fitted to two-state exchange model; 50 μM protein; read-out: estimated KD. In kind it is binding. From the text: The ^1H and ^15N resonances were fully assigned using complementary pairs of triple resonance NMR spectra - CBCA(CO)NH/HNCACB for Cα and Cβ and HNCO/HN(CA)CO for CO connectivities.
Ligand-induced chemical shift perturbations (CSPs) in NH resonances on addition of the ligand were used as an indication of ligand binding and location of the binding site.
NMR spectra were collected on Bruker Avance III 600 and 800 MHz spectrometers equipped with CryoProbes. Spectra were processed with TopSpin (Bruker) and analysed using CCPNmr Analysis[35]. ^1H-^15N HSQC ligand screening ^1H-^15N- Heteronuclear Single Quantum Coherence (HSQC) experiments for ligand binding screening were performed using 0.05 mM ^15N-labelled EB1 in 20 mM phosphate pH 6.5, 50 mM NaCl, 0.5 mM TCEP, 0.02% (w/v) NaN3 in the absence or presence of ligands. To eliminate any small shifts induced by the small amounts of DMSO used to dissolve the compounds, DMSO concentration was kept constant in all experiments.
The dotted lines connect the values calculated for the best-fit curves at the titration points. Ligand concentration corresponds to the excess of ligand (e.g. 10-fold excess, 20-fold excess) to the protein concentration (50 μM). Binding constants were evaluated by fitting the experimental data to the […]
∆δ = ∆δ {([P] + [L] + K ) − [([P] + [L] + K )2 − 4[P] [L] ]1⁄2}⁄2[P] […]
As for `Cc1c(NC(=O)[C@@H](C)Sc2nnnn2C2CCCC2)c(=O)n(-c2ccccc2)n1C` [1d], the Kd was 6 ± 1 mM.

`C[C@@H](Sc1nnnn1C1CCCC1)C(=O)NCc1ccco1` [1a]: the Kd was 10 ± 3 mM.

For `CC[C@H](C)[C@H](NC(=O)[C@H](CCCCN)NC(=O)[C@@H](N)CO)C(=O)N1CCC[C@H]1C(=O)O` [SKIP, reference compound] (H-SKIP-OH), the Kd is 14 ± 1.9 mM.
